The text below walks through data of ChEMBL document CHEMBL1287790, “Design, synthesis and SAR of thienopyridines as potent CHK1 inhibitors” (Bioorg Med Chem Lett, 2010).

SMILES strings stand for the structures.

In this experiment the target is T1, Serine/threonine-protein kinase Chk1 (Homo sapiens, UniProt O14757).
T1 sequence (O14757 whole entry): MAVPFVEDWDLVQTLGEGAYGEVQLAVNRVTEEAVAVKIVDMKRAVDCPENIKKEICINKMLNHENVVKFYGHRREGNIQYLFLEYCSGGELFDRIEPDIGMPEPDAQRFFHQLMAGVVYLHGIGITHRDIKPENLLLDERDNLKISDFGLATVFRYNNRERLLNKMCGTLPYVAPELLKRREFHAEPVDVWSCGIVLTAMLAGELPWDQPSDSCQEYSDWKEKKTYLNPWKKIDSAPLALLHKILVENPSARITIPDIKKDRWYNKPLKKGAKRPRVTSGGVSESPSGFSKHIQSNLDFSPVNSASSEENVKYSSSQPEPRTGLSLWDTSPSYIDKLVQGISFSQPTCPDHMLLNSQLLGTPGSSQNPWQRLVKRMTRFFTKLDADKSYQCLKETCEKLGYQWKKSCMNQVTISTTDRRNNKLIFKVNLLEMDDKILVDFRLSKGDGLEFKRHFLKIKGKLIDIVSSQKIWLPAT
Briefly: Inhibition of His-tagged CHK1 after 2 hrs by liquid scintillation counting.
Usually IC50 stands for the concentration at which inhibition is half-maximal. Read a high IC50 as weaker potency. Regarding `CC(=O)Nc1cccc(-c2cc3c(N[C@H]4CCCNC4)ncc(C(N)=O)c3s2)c1`, the IC50 is 2 nM.

Consider `NC(=O)c1cnc(N[C@H]2CCCNC2)c2cc(-c3cccc(N)c3)sc12`, for which the midpoint of inhibition, the IC50, lay at 2 nM.

The compound `CN(C)C(=O)c1ccc(-c2cc3c(N[C@H]4CCCNC4)ncc(C(N)=O)c3s2)cc1` registered an IC50 of 1 nM.

Turning to `COc1ccc(-c2cc3c(N[C@H]4CCCNC4)ncc(C(N)=O)c3s2)cn1`, the IC50 worked out at 3 nM.

`NC(=O)c1cnc(N[C@H]2CCCNC2)c2cc(-c3ccncc3)sc12` gave an IC50 of 3 nM.

For `NC(=O)c1cnc(N[C@H]2CCCNC2)c2cc(-c3ccc(F)c(F)c3)sc12`, the IC50 stood at 2 nM.

Regarding `CN(C)S(=O)(=O)c1cccc(-c2cc3c(N[C@H]4CCCNC4)ncc(C(N)=O)c3s2)c1`, the IC50 stood at 20 nM.

`CN(C)S(=O)(=O)c1ccc(-c2cc3c(N[C@H]4CCCNC4)ncc(C(N)=O)c3s2)cc1` registered an IC50 of 16 nM.

`NC(=O)c1cnc(N[C@H]2CCCNC2)c2cc(-c3cccnc3)sc12` came in with an IC50 of 5 nM.

As for `NC(=O)c1cnc(N[C@H]2CCCNC2)c2cc(-c3ccccc3)sc12`, the IC50 is 4 nM.

As to `NC(=O)c1cnc(N[C@H]2CCCNC2)c2sc(-c3ccc(Cl)cc3)cc12`, 4580 nM corresponded to half-maximal inhibition (IC50).

The compound `NC(=O)c1cnc(N[C@H]2CCCNC2)c2nc(-c3ccc(Cl)cc3)sc12` registered an IC50 of 9 nM.

As for `NC(=O)c1cnc(N[C@H]2CCCNC2)c2cc(-c3ccccc3Cl)sc12`, the IC50 was 21 nM.

The compound `NC(=O)c1cnc(N[C@H]2CCCNC2)c2cc(-c3cccc4[nH]ccc34)sc12` registered an IC50 of 5 nM.

Compound `COc1ccccc1-c1cc2c(N[C@H]3CCCNC3)ncc(C(N)=O)c2s1` gave an IC50 of 19 nM.

For `COc1ccc(-c2cc3c(N[C@H]4CCCNC4)ncc(C(N)=O)c3s2)cc1`, the IC50 worked out at 3 nM.

With `NC(=O)c1cnc(N[C@H]2CCCNC2)c2cc(-c3cccc(CO)c3)sc12`, the midpoint of inhibition, the IC50, lay at 3 nM.

The compound `NC(=O)c1cnc(N[C@H]2CCCNC2)c2cc(-c3ccc4sccc4c3)sc12` returned an IC50 of 4 nM.

Compound `NC(=O)c1cnc(N[C@H]2CCCNC2)c2cc(-c3ccc(Oc4ccccc4)cc3)sc12` yielded an IC50 of 4 nM.

For `NC(=O)c1cnc(N[C@H]2CCCNC2)c2cc(-c3ccc4[nH]ccc4c3)sc12`, half-maximal inhibition (IC50) required 60 nM.

`NC(=O)c1cnc(N[C@H]2CCCNC2)c2cc(-c3ccc4cc[nH]c4c3)sc12` had an IC50 of 16 nM.

Turning to `NC(=O)Nc1sc(-c2ccc(Cl)cc2)cc1C(=O)NC1CCCCC1`, the IC50 worked out at 2 nM.

Compound `NC(=O)c1cnc(N[C@H]2CCCNC2)c2cc(-c3ccc(F)cc3F)sc12` had an IC50 of 9 nM.

`NC(=O)c1cnc(N[C@H]2CCCNC2)c2cc(-c3ccc(Cl)c(F)c3)sc12`: 9 nM corresponded to half-maximal inhibition (IC50).

Take `NC(=O)c1cnc(N[C@H]2CCNC2)c2cc(-c3ccc(Cl)cc3)sc12`: half-maximal inhibition (IC50) required 14 nM.

`NC(=O)c1cnc(NC2CNC2)c2cc(-c3ccc(Cl)cc3)sc12` displayed an IC50 of 707 nM.

Turning to `NC(=O)c1cnc(N[C@H]2CCCNC2)c2cc(-c3ccc(C(F)(F)F)cc3)sc12`, the IC50 is 5 nM.

In turn, `CS(=O)(=O)c1ccc(-c2cc3c(N[C@H]4CCCNC4)ncc(C(N)=O)c3s2)cc1` came in with an IC50 of 2 nM.

`NC(=O)Nc1sc(-c2ccc(Cl)cc2)cc1C(=O)N1CCCC[C@H](N)C1`: the IC50 was determined as 746 nM.

`NC(=O)c1cnc(N[C@H]2CCCCNC2)c2cc(-c3ccc(Cl)cc3)sc12`: the IC50 came to 3 nM.

`N#Cc1cccc(-c2cc3c(N[C@H]4CCCNC4)ncc(C(N)=O)c3s2)c1` gave an IC50 of 7 nM.

Turning to `NC(=O)c1cnc(N[C@H]2CCCNC2)c2cc(-c3ccc(F)cc3)sc12`, the IC50 came out at 5 nM.

The compound `CNCCNc1ncc(C(N)=O)c2sc(-c3ccc(Cl)cc3)cc12` yielded an IC50 of 7 nM.

The compound `NC(=O)c1cnc(NCC2CCCCN2)c2cc(-c3ccc(Cl)cc3)sc12` (centres undefined) came in with an IC50 of 292 nM.

Turning to `NC(=O)c1cnc(N[C@H]2CCCNC2)c2cc(-c3ccc(OC(F)(F)F)cc3)sc12`, the IC50 amounted to 9 nM.

`NC(=O)c1cnc(N[C@H]2CCCNC2)c2cc(-c3ncccn3)sc12`: half-maximal inhibition (IC50) required 60 nM.

The compound `NC(=O)c1cnc(NC[C@@H]2CCCN2)c2cc(-c3ccc(Cl)cc3)sc12` returned an IC50 of 197 nM.

The compound `NC(=O)c1cnc(NC[C@@H]2CSCN2)c2cc(-c3ccc(Cl)cc3)sc12` gave an IC50 of 937 nM.

On to `NC(=O)c1cnc(N[C@H]2CCCNC2)c2cc(-c3ccc(F)c(Cl)c3)sc12`, for which the IC50 is 4 nM.

In the case of `NC(=O)c1cnc(N[C@H]2CCCNC2)c2cc(-c3cc4ccccc4o3)sc12`, inhibition was half-maximal at 2 nM (IC50).

On to `NC(=O)c1cnc(N2CCC[C@@H](N)C2)c2cc(-c3ccc(Cl)cc3)sc12`, for which the IC50 is 148 nM.

`NC(=O)c1cnc(N[C@@H]2CCCNC2)c2cc(-c3ccc(Cl)cc3)sc12` registered a half-inhibitory concentration (IC50) of 211 nM.

In turn, `NC(=O)c1cnc(N[C@H]2CCCNC2)c2cc(C#Cc3cccnc3)sc12` came in with an IC50 of 67 nM.

Compound `NC(=O)c1cnc(N[C@H]2CCCNC2)c2cc(-c3cnc4ccccc4c3)sc12` registered an IC50 of 34 nM.

In turn, `NC(=O)c1cnc(N[C@@H]2CCCC[C@H]2N)c2cc(-c3ccc(Cl)cc3)sc12` yielded an IC50 of 27100 nM.

`COc1ccc(F)cc1-c1cc2c(N[C@H]3CCCNC3)ncc(C(N)=O)c2s1` displayed an IC50 of 24 nM.

As for `NC(=O)c1ccc(-c2cc3c(N[C@H]4CCCNC4)ncc(C(N)=O)c3s2)cc1`, the IC50 stood at 1 nM.

In the case of `NC(=O)c1cnc(N[C@H]2CCCNC2)c2cc(-c3ccc4ncccc4c3)sc12`, the IC50 stood at 5 nM.

`NC(=O)c1cnc(N[C@H]2CCCNC2)c2cc(-c3cc(F)cc(F)c3)sc12` came in with an IC50 of 5 nM.

The compound `NC(=O)c1cnc(N[C@H]2CCCNC2)c2cc(-c3cccc(Cl)c3)sc12` registered an IC50 of 4 nM.

As to `Cn1ccc2cc(-c3cc4c(N[C@H]5CCCNC5)ncc(C(N)=O)c4s3)ccc21`, the IC50 was 8 nM.

The compound `NC(=O)c1cnc(N[C@H]2CCCNC2)c2cc(-c3cccc(N4CCCC4)c3)sc12` displayed an IC50 of 3 nM.

With `NC(=O)c1cnc(N[C@H]2CCCNC2)c2cc(Br)sc12`, the IC50 was determined as 56 nM.

`NC(=O)c1cnc(N[C@H]2CCCNC2)c2ccsc12` yielded an IC50 of 717 nM.
